# Reference: patent publication US12122786B2, “Inhibitors of cyclic mono- and di-nucleotide phosphodiesterases and the uses thereof” (priority 2020, dated 2024)
# Legend:
# MTB CdnP [1] = molecular target: T1, MTB CdnP (Mycobacterium tuberculosis, UniProt P71615); assay: IC50 determination of MTB CdnP inhibition, coralyne assay; assay type: biochemical; conditions: 50 nM MTB CdnP and 80 μM c-di-AMP, read-out: IC50 of MTB CdnP enzymatic activity inhibition
# GBS-CdnP = assay: Selectivity, HPLC analysis of GBS CdnP reaction; conditions: 50 μM c-di-AMP, 100 nM GBS CdnP, room temperature, 15 min
# PDE5A = molecular target: T2, PDE5A (Homo sapiens, UniProt O76074); assay: Cyclic mononucleotide phosphodiesterase inhibition (PDE5A), Transcreener fluorescence polarization assay; assay type: biochemical; conditions: 10 μM of compound, 1 μM cGMP, 1 h
# T2 construct: purchased Reaction Biology
# Experimental: Cyclic mononucleotide phosphodiesterase inhibition (PDE5A): 10 μM of compound was added to PDE5A in Buffer (10 mM Tris, pH 7.5, 5 mM MgCl2, 0.01% Brij 35, 1 mM DTT, and 1% DMSO). 1 μM cGMP was added and the reaction was incubated for 1 h. The assay used detects the reaction product, GMP, by Transcreener Fluorescence polarization assay (Reaction Biology).
# poxin = poxin (Vaccinia virus, UniProt Q01225); assay: Selectivity, HPLC analysis of poxin reaction; conditions: 20 μM 2′3 cGAMP, 5 nM poxin, room temperature, 20 min
# RocR = RocR (Pseudomonas aeruginosa, UniProt Q9HX69); assay: Selectivity, HPLC analysis of RocR reaction; conditions: 25 μM c-di-GMP, 10 nM RocR, 37° C., 60 min
# [2] = system: mammalian cells (MDA-MB-231, and MRC-5); conditions: up to 100 μM, 24 h
# MTB CdnP [3] = molecular target: T1, MTB CdnP; assay: Intrinsic fluorescence binding assay; conditions: 2 μM MTB CdnP, varying concentrations, 1× PBS
# Experimental: (§1) Next, we sought to determine C82 mode of inhibition. Firstly, we confirmed that C82 does indeed bind to MTB CdnP, using intrinsic fluorescence assay^20. […] We then determined whether C82 could displace bound c-di-AMP from MTB CdnP. […] We also used a secondary fluorescent polarization displacement assay to confirm this finding. Briefly, fluorescent labeled c-di-GMP was incubated with MTB CdnP and treated with different concentrations of C82, or c-di-AMP in the presence of calcium to inhibit the cleavage of the bound CDN′″. […] We therefore concluded that C82 inhibits MTB CdnP by binding to a non-cyclic dinucleotide binding site. Kinetics studies reveal that C82 inhibits MTB CdnP with an apparent inhibition constant of approximately 8 μM (FIG. 8). Future structural work, beyond the scope of this work should help clarify the binding site of C82.
# Solutions containing 2 μM MTB CndP, and varying concentrations of C82 in 1× PBS were incubated for 30 min at room temperature. Fluorescence spectra were obtained by measuring fluorescence intensities in the 310 nm to 400 nm range following an excitation at 290 nm wavelength.
# Yybt = Yybt (Bacillus subtilis, UniProt P37484); assay: Selectivity, HPLC analysis of Yybt reaction; conditions: 70 μM c-di-AMP, 1 μM Yybt, 37° C., 60 min
# MTB CdnP [4] = molecular target: T1, MTB CdnP; assay: Differential radial capillary action of ligand assay (DRaCALA); assay type: binding; conditions: 20 μM MTB CdnP, 200 pM 32P c-di-AMP; C82 even at 300 μM
# Experimental: (§2) FIG. 7A: unlabeled c-di-AMP inhibits ^32P-c-di-AMP sequestering by MTB CdnP in a concentration dependent manner. FIG. 7B: C82 effects on ^32P-c-di-AMP sequestering by MTB CdnP. […] CDA=c-di-AMP. ***=p-value<0.001. Statistical analysis conducted using the student's t-test.
# as §1
# 5 μl of the reaction mixture was pipetted onto dry untreated nitrocellulose membrane (GE Healthcare) and allowed to dry at room temperature. The nitrocellulose membrane was exposed to the GE Storage Phosphor screen for 8 h and then visualized with Typhoon™ FLA 9500 biomolecular imager.
# ENPP1 = molecular target: T3, ENPP1 (Homo sapiens, UniProt P22413); assay: Selectivity, HPLC analysis of ENPP1 reaction; conditions: 25 μM cGAMP, 4.58 nM ENPP1, 37° C., 60 min
# T3 sequence (P22413 1-925): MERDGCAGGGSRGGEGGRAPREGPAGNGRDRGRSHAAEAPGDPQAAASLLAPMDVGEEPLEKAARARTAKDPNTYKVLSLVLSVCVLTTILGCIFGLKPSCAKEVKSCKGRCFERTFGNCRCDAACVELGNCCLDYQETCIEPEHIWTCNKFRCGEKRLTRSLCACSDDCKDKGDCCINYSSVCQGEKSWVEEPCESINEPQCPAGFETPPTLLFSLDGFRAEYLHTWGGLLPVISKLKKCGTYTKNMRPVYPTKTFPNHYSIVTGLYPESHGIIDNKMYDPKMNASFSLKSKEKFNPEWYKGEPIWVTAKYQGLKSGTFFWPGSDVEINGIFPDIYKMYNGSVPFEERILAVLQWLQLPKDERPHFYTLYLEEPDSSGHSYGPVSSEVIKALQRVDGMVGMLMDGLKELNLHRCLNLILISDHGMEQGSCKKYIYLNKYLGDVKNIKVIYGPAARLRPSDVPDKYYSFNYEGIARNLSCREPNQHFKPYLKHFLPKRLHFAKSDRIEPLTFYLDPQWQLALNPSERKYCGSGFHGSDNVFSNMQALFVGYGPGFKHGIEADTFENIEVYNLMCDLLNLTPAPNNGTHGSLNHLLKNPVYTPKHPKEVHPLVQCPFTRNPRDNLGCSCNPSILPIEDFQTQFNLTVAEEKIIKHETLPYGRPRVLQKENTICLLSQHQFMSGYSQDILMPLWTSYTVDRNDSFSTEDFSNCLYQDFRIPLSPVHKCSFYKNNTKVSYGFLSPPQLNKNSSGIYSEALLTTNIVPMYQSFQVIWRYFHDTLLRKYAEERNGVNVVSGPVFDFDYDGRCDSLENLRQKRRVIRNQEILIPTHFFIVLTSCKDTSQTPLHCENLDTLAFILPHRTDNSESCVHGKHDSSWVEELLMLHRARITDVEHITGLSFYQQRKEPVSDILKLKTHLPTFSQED
# MTB CdnP [5] = molecular target: T1, MTB CdnP; assay: Fluorescence polarization competition assay; assay type: binding; conditions: 150 μM MTB CdnP, 50 nM F-c-di-GMP, calcium
# Experimental: as §2, §1
# Fluorescence polarization was determined using Biotek Cytation 5 multi-mode reader (excitation 485 nm/20 and emission 528 nm/20). Anisotropy was calculated using the GEN 5™ microplate reader and imaging software.
# MTB CdnP [6] = molecular target: T1, MTB CdnP; assay type: biochemical; conditions: 20 to 150 μM inhibitor, 0.5 μM MTB CdnP, 1 h at 37° C.
# MTB CdnP [7] = molecular target: T1, MTB CdnP; assay: HPLC analysis of c-di-AMP cleavage by MTB CdnP; assay type: biochemical; conditions: 20 μM compound, 100 nM MTB CdnP, 70 μM c-di-AMP, 37° C.
# MTB CdnP [8] = molecular target: T1, MTB CdnP; assay: Kinetics study (Dixon plot) by coralyne assay; assay type: biochemical; conditions: 50 nM MTB CdnP, 30° C., read-out: apparent inhibition constant
# Experimental: FIG. 8: C82 Dixon plot. Initial velocity was determined using slope of c-di-AMP hydrolysis kinetics.
# as §1
# PDE3 = conditions: read-out: IC50 (PDE3 inhibitor); cited from earlier work
# PDE4 = conditions: read-out: IC50 (PDE4 inhibitor); cited from earlier work
# PDE10 = conditions: read-out: IC50 (PDE10 inhibitor); cited from earlier work
structure (smiles),measurement,setting,value
CCc1cc2c(=O)n(CC(=O)Nc3ccccc3OC)cnc2s1 [Compound C82],IC50,MTB CdnP [1],17.4 µM
same,inhibition of GBS-CdnP,GBS-CdnP,did not inhibit
same,% inhibition (PDE5A),PDE5A,32.00%
same,inhibition of poxin,poxin,did not inhibit
same,inhibition of RocR,RocR,did not inhibit
same,cytotoxicity against mammalian cells (cell viability),[2],did not significantly inhibit cell viability
same,binding to MTB CdnP (intrinsic fluorescence decay),MTB CdnP [3],does bind to MTB CdnP
same,inhibition of Yybt,Yybt,did not inhibit
same,displacement of radiolabeled c-di-AMP from MTB CdnP (DRaCALA),MTB CdnP [4],did not displace radiolabeled c-di-AMP
same,inhibition of ENPP1,ENPP1,did not inhibit
same,displacement of fluorescent labeled c-di-GMP from MTB CdnP (fluorescence polarization),MTB CdnP [5],did not displace the fluorescent labeled c-di-GMP
same,"inhibition of c-di-AMP hydrolysis by MTB CdnP (TLC), varying inhibitor concentrations",MTB CdnP [6],most potent inhibition
same,"inhibition of c-di-AMP cleavage by MTB CdnP (HPLC), 3 h incubation",MTB CdnP [7]; 3 h,most potent inhibitory effects
same,"inhibition of c-di-AMP cleavage by MTB CdnP (HPLC), overnight (12 h) incubation",MTB CdnP [7]; 12 h,retained any inhibitory effect
same,Ki,MTB CdnP [8],~8 µM
CSc1ccc(C(=O)c2[nH]c(=O)[nH]c2C)cc1 [enoximone],IC50,PDE3,10 µM
"Nc1ncnc2c1ncn2[C@@H]1O[C@@H]2COP(=O)(O)O[C@H]3[C@@H](O)[C@H](n4cnc5c(N)ncnc54)O[C@@H]3COP(=O)(O)O[C@H]2[C@H]1O [c-di-AMP, reference compound]",displacement of radiolabeled c-di-AMP from MTB CdnP (DRaCALA),MTB CdnP [4],could displace radiolabeled c-di-AMP
CCOc1cc([C@@H](CS(C)(=O)=O)N2C(=O)c3cccc(NC(C)=O)c3C2=O)ccc1OC [apremilast],IC50,PDE4,0.074 µM
COc1ccc(Cc2nccc3cc(OC)c(OC)cc23)cc1OC [papaverine],IC50,PDE10,0.0923 µM
